Activity calls are given as the source filed them. No rule for the calls is given here.
Tested on: rodent carcinogenicity bioassays, tumor incidence
Assay: CCRIS carcinogenicity studies
Procedure, shortened: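 Archive of carcinogenicity, mutagenicity, tumor promotion and tumor inhibition results drawn from journals, NCI reports and other sources, expert-reviewed; covers 1985-2011 and is no longer updated.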

Measured: carcinogen call

CCN(CC)N=O
active: Species: DOG, Route: ORAL, Tumor Site: Type of Lesion: LIVER active; positive | Species: FISH, Route: ORAL, Tumor Site: Type of Lesion: LIVER active; positive | Species: FISH, Strain/Sex: GUPPY POECILIA RETICULATA/MALE, FEMALE, Route: IMMERSION, Dose: 0, 29.4 MG/L IN WATER FOR 28 D (STUDY DURATION: 6 MONTHS), Tumor Site: Type of Lesion: LIVER: MULTIFOCAL HEPATOMA, CHOLANGIOMA active; positive | Species: FISH, Strain/Sex: MEDAKA/MALE,FEMALE, Route: IMMERSION, Dose: 0, 390 PPM IN AQUEOUS BATH FOR 48 HR (STUDY DURATION: 7 MO), Tumor Site: Type of Lesion: LIVER: TUMOR active; positive | Species: FISH, Strain/Sex: SHASTA RAINBOW TROUT/FEMALE, Route: ORAL, Dose: 0, 4, 70, 275, 550, 1100 PPM IN DIET FOR 12 MO (STUDY DURATION: 18 MO), Dose: 0, 4, 70, 275, 550, 1100 PPM IN DIET FOR 12 MO (STUDY DURATION: 18 MO), Tumor Site: Type of Lesion: LIVER: TUMOR active; positive | Species: FISH, Strain/Sex: SHASTA RAINBOW TROUT/MALE, Route: ORAL, Dose: 0, 4, 70, 275, 550, 1100 PPM IN DIET FOR 12 MO (STUDY DURATION: 18 MO), Dose: 0, 4, 70, 275, 550, 1100 PPM IN DIET FOR 12 MO (STUDY DURATION: 18 MO), Tumor Site: Type of Lesion: LIVER: TUMOR active; positive | Species: GUINEA PIG, Route: ORAL, SUBCUTANEOUS, Tumor Site: Type of Lesion: LIVER active; positive | Species: HAMSTER, Route: DERMAL, Tumor Site: Type of Lesion: NASAL CAVITY active; positive | Species: HAMSTER, Route: INHALATION, Tumor Site: Type of Lesion: TRACHEA, LUNG active; positive | Species: HAMSTER, Route: INTRAPERITONEAL, Tumor Site: Type of Lesion: TRACHEA, NASAL CAVITY, BRONCHI, LIVER, Tumor Site: Type of Lesion: TRACHEA, NASAL CAVITY, BRONCHI, LIVER active; positive | Species: HAMSTER, Route: ORAL, Tumor Site: Type of Lesion: TRACHEA, LUNG, NASAL CAVITY, BRONCHI, LIVER, FORESTOMACH, ESOPHAGUS, Tumor Site: Type of Lesion: TRACHEA, LUNG, NASAL CAVITY, BRONCHI, LIVER, FORESTOMACH, ESOPHAGUS active; positive | Species: HAMSTER, Route: SUBCUTANEOUS, Tumor Site: Type of Lesion: NASAL CAVITY, BRONCHI, TRACHEA, LUNG, LIVER, FORESTOMACH, ESOPHAGUS, Tumor Site: Type of Lesion: NASAL CAVITY, BRONCHI, TRACHEA, LUNG, LIVER, FORESTOMACH, ESOPHAGUS active; positive | Species: HAMSTER, Strain/Sex: SYRIAN/FEMALE, Route: INTRATRACHEAL, Dose: 0, 1 MG IN 0.1 ML PHOSPHATE BUFFER 15/WK FOR 4 MO (STUDY DURATION: 237 D), Tumor Site: Type of Lesion: LUNG: ADENOMA OR CARCINOMA, TRACHEA: PAPILLOMA active; positive | Species: HAMSTER, Strain/Sex: SYRIAN/MALE, Route: INTRATRACHEAL, Dose: 0, 0.1, 0.5 MG IN PHOSPHATE BUFFER 1/WK FOR 15 WK (TOTAL DOSE; 1.5; 7.5 MG) (STUDY DURATION: LIFESPAN), Dose: 0, 0.1, 0.5 MG IN PHOSPHATE BUFFER 1/WK FOR 15 WK (TOTAL DOSE; 1.5; 7.5 MG) (STUDY DURATION: LIFESPAN), Tumor Site: Type of Lesion: TRACHEA: PAPILLOMA, LUNG: ADENOMA, SQUAMOUS CARCINOMA, ADENOCARCINOMA, LIVER: HEPATOCELLULAR CARCINOMA, Tumor Site: Type of Lesion: TRACHEA: PAPILLOMA, LUNG: ADENOMA, SQUAMOUS CARCINOMA, ADENOCARCINOMA, LIVER: HEPATOCELLULAR CARCINOMA active; positive | Species: MONKEY, Route: ORAL, INTRAPERITONEAL, Tumor Site: Type of Lesion: LIVER active; positive | Species: MOUSE, Route: DERMAL, Tumor Site: Type of Lesion: NASAL CAVITY active; positive | Species: MOUSE, Route: ORAL, Tumor Site: Type of Lesion: LIVER, ESOPHAGUS, LUNG, FORESTOMACH, Tumor Site: Type of Lesion: LIVER, ESOPHAGUS, LUNG, FORESTOMACH active; positive | Species: MOUSE, Route: SUBCUTANEOUS, INTRAPERITONEAL, Tumor Site: Type of Lesion: LUNG active; positive | Species: MOUSE, Strain/Sex: AKR/MALE, Route: ORAL, Dose: 0, 100 PPM IN DRINKING WATER FOR DURATION OF STUDY (STUDY DURATION: 150 D), Tumor Site: Type of Lesion: LUNG: TUMOR active; positive | Species: MOUSE, Strain/Sex: B6C3F1/FEMALE, Route: INTRAPERITONEAL, Dose: 0, 1.5, 3 UG IN 0.01 ML TRIOCTANOIN/G BW INITIAL DOSE GIVEN ON DAY 1 OF AGE AND 3 SUBSEQUENT DOSES GIVEN 3, 9 AND 15 DAY, Dose: 0, 1.5, 3 UG IN 0.01 ML TRIOCTANOIN/G BW INITIAL DOSE GIVEN ON DAY 1 OF AGE AND 3 SUBSEQUENT DOSES GIVEN 3, 9 AND 15 DAY, Tumor Site: Type of Lesion: LIVER: ADENOMA, CARCINOMA, LUNG: TUMORS active; positive | Species: MOUSE, Strain/Sex: B6C3F1/FEMALE, Route: INTRAPERITONEAL, Dose: 0, 1.5, 3 UG IN 0.01 ML TRIOCTANOIN/G BW INITIAL DOSE GIVEN ON DAY 15 OF AGE AND 3 SUBSEQUENT DOSES GIVEN 3, 9 AND 15 DA, Dose: 0, 1.5, 3 UG IN 0.01 ML TRIOCTANOIN/G BW INITIAL DOSE GIVEN ON DAY 15 OF AGE AND 3 SUBSEQUENT DOSES GIVEN 3, 9 AND 15 DA, Tumor Site: Type of Lesion: LIVER: ADENOMA, CARCINOMA, LUNG: TUMORS active; positive | Species: MOUSE, Strain/Sex: B6C3F1/FEMALE, Route: INTRAPERITONEAL, Dose: 0, 1.5, 3 UG IN 0.01 ML TRIOCTANOIN/G BW INITIAL DOSE GIVEN ON DAY 42 OF AGE AND 3 SUBSEQUENT DOSES GIVEN 3, 9 AND 15 DA, Dose: 0, 1.5, 3 UG IN 0.01 ML TRIOCTANOIN/G BW INITIAL DOSE GIVEN ON DAY 42 OF AGE AND 3 SUBSEQUENT DOSES GIVEN 3, 9 AND 15 DA, Tumor Site: Type of Lesion: LIVER: ADENOMA, CARCINOMA, LUNG: TUMORS active; positive | Species: MOUSE, Strain/Sex: B6C3F1/MALE, Route: INTRAPERITONEAL, Dose: 0, 0.02, 0.07 UMOL/G BW IN 10 µL/G BW TRIOCTANOIN ONCE AT 12 D OF AGE (STUDY DURATION: 9 MO), Dose: 0, 0.02, 0.07 UMOL/G BW IN 10 µL/G BW TRIOCTANOIN ONCE AT 12 D OF AGE (STUDY DURATION: 9 MO), Tumor Site: Type of Lesion: LIVER: HEPATOMA active; positive | Species: MOUSE, Strain/Sex: B6C3F1/MALE, Route: INTRAPERITONEAL, Dose: 0, 1.5, 3 UG IN 0.01 ML TRIOCTANOIN/G BW INITIAL DOSE GIVEN ON DAY 1 OF AGE AND 3 SUBSEQUENT DOSES GIVEN 3, 9 AND 15 DAY, Dose: 0, 1.5, 3 UG IN 0.01 ML TRIOCTANOIN/G BW INITIAL DOSE GIVEN ON DAY 1 OF AGE AND 3 SUBSEQUENT DOSES GIVEN 3, 9 AND 15 DAY, Tumor Site: Type of Lesion: LIVER: ADENOMA, CARCINOMA, LUNG: TUMORS active; positive | Species: MOUSE, Strain/Sex: B6C3F1/MALE, Route: INTRAPERITONEAL, Dose: 0, 1.5, 3 UG IN 0.01 ML TRIOCTANOIN/G BW INITIAL DOSE GIVEN ON DAY 15 OF AGE AND 3 SUBSEQUENT DOSES GIVEN 3, 9 AND 15 DA, Dose: 0, 1.5, 3 UG IN 0.01 ML TRIOCTANOIN/G BW INITIAL DOSE GIVEN ON DAY 15 OF AGE AND 3 SUBSEQUENT DOSES GIVEN 3, 9 AND 15 DA, Tumor Site: Type of Lesion: LIVER: ADENOMA, CARCINOMA, LUNG: TUMORS active; positive | Species: MOUSE, Strain/Sex: B6C3F1/MALE, Route: INTRAPERITONEAL, Dose: 0, 1.5, 3 UG IN 0.01 ML TRIOCTANOIN/G BW INITIAL DOSE GIVEN ON DAY 42 OF AGE AND 3 SUBSEQUENT DOSES GIVEN 3, 9 AND 15 DA, Dose: 0, 1.5, 3 UG IN 0.01 ML TRIOCTANOIN/G BW INITIAL DOSE GIVEN ON DAY 42 OF AGE AND 3 SUBSEQUENT DOSES GIVEN 3, 9 AND 15 DA, Tumor Site: Type of Lesion: LIVER: ADENOMA, CARCINOMA, LUNG: TUMORS active; positive

Source: PubChem BioAssay AID1259411 (Chemical Carcinogenesis Research Information System (CCRIS), 2018)
